Molecular target: EGFR (UniProt P00533)
Experiment: Inhibition of EGFR Kinase Activity

Chain of EGFR (P00533 whole entry, looked up): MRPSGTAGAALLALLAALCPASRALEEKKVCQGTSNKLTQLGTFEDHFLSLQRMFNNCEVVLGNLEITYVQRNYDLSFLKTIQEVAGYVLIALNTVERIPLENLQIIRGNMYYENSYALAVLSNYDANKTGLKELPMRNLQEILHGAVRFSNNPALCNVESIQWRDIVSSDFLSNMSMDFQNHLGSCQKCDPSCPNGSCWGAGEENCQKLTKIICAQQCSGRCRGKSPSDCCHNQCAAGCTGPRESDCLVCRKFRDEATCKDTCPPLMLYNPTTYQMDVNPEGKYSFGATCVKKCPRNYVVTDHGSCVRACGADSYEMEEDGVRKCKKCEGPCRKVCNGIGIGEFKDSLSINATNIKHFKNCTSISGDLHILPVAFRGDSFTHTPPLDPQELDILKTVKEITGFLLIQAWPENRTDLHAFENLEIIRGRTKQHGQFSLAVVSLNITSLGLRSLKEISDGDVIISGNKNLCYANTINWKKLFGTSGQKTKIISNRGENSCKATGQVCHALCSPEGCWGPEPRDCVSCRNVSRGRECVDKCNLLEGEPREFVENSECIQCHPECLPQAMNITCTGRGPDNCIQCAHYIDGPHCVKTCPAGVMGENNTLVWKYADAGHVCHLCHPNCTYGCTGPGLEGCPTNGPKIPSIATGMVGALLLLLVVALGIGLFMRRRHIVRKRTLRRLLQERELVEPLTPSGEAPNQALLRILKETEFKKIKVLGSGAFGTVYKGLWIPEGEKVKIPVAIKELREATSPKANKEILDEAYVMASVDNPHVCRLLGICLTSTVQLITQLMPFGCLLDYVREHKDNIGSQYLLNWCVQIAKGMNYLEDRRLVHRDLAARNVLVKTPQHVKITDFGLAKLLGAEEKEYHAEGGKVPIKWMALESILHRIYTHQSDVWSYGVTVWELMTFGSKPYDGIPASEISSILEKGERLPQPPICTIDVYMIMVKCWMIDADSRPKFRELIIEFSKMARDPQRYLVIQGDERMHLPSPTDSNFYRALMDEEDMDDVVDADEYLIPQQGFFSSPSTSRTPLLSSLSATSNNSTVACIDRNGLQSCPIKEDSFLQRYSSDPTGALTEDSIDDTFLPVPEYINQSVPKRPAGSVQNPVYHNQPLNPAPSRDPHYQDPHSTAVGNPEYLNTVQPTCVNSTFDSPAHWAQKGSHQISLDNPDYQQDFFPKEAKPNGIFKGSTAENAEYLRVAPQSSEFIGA

Structure (SMILES) | IC50 [µM]
CC#CC(=O)Nc1cc(Nc2ncnc(Nc3ccc(OCc4ccccc4)c(Cl)c3)n2)ccc1OCCCC1CCN(C)CC1 | < 50
C=C/C=C/C(=O)Nc1cccc(Nc2ncnc(NC3CC3c3ccc(Cl)cc3)n2)c1 (stereo not given) | < 50
C=CC(=O)N1CCc2cc(Nc3ncnc(Nc4ccc5c(cnn5Cc5ccccc5)c4)n3)ccc21 | < 50
CC#CC(=O)Nc1cccc(Nc2ncnc(N(C)c3ccc4c(ccn4Cc4ccccc4)c3)n2)c1 | < 50
C=CC(=O)Nc1cccc(Nc2ncnc(N(C)c3cccc(C)c3)n2)c1 | < 50
C=CC(=O)N(CCCN1CCOCC1)c1cccc(Nc2ncnc(Nc3ccc(F)c(Cl)c3)n2)c1 | < 50
CC#CC(=O)Nc1cccc(Nc2ncnc(N(C)c3ccc(OCCO)cc3)n2)c1 | < 50
C=CCN(c1ncnc(Nc2cccc(NC(=O)C=C)c2)n1)c1cc(Cl)ccc1C | < 50
C=CC(=O)N(CCCN1CCOCC1)c1cccc(Nc2ncnc(N(C)C3CC3c3ccccc3)n2)c1 (stereo not given) | < 50
C=CCN(c1cccc(C)c1)c1ncnc(Nc2cccc(NC(=O)C#CC)c2)n1 | < 50
C=CC(=O)Nc1cccc(Nc2ncnc(N(CC)c3cccc(Cl)c3)n2)c1 | < 50
CCN(c1ccc2NN(=Cc2c1)Cc3ccccn3)c4ncnc(Nc5cccc(NC(=O)C#CC)c5)n4 | < 50
C=CC(=O)Nc1cc(Nc2ncnc(N(C)c3ccc(OCc4ccccc4)c(Cl)c3)n2)ccc1OCCCN1CCOCC1 | < 50
C=CCN(c1cccc(Cl)c1)c1ncnc(Nc2ccc(NC(=O)C=C)cc2)n1 | < 50
C=CC(=O)Nc1cccc(Nc2ncnc(NN3CCCc4ccc(C(F)(F)F)cc43)n2)c1 | < 50
CC#CC(=O)Nc1cc(Nc2ncnc(N(C)c3ccc(OCc4ccccc4)c(Cl)c3)n2)ccc1OCCCN1CCOCC1 | < 50
C=CC(=O)Nc1cccc(Nc2ncnc(N(C)c3cc(OC)c(OC)c(OCCN4CCOCC4)c3)n2)c1 | < 50
C=CC(=O)Nc1ccc(Nc2ncnc(Nc3ccc(OCCC)c(OCCC)c3)n2)cc1 | < 50
C=CC(=O)Nc1ccc(Nc2ncnc(N(C)c3ccc(OC)c(OC)c3)n2)cc1 | < 50
C=CCC(=O)Nc1cccc(Nc2ncnc(Nc3ccc4NN(=Cc4c3)Cc5ccccn5)n2)c1 | < 50
CC#CC(=O)Nc1cccc(Nc2ncnc(Nn3c(=O)n(C(=O)C(C)(C)C)c4ccccc43)n2)c1 | < 50
C=CC(=O)Nc1ccc(Nc2ncnc(Nn3c(=O)n(C(=O)C(C)(C)C)c4ccccc43)n2)cc1 | < 50

Structure (SMILES) | IC50 [µM]
C=CC(=O)Nc1cccc(Nc2ncnc(N(CC)c3ccc(OC)c(OCCOC)c3)n2)c1 | < 50
CC#CC(=O)Nc1cc(Nc2ncnc(N(C)c3ccc4c(ccn4Cc4ccccc4)c3)n2)ccc1OCCCC1CCN(C)CC1 | < 50
C=CC(=O)Nc1ccc(Nc2ncnc(N(CC)C3CC3c3ccc(Cl)cc3)n2)cc1 (stereo not given) | < 50
C=CC(=O)Nc1cccc(Nc2ncnc(N(C)c3cccc(Cl)c3)n2)c1 | < 50
C=CC(=O)Nc1cccc(Nc2ncnc(NN3CCCc4cc(OC)ccc43)n2)c1 | < 50
C=CCN(c1ncnc(Nc2cccc(NC(=O)C=C)c2)n1)n1c(=O)n(C(=O)C(C)(C)C)c2ccccc21 | < 50
C=CCN(c1ccc(OC)c(OC)c1)c1ncnc(Nc2cccc(NC(=O)C#CC)c2)n1 | < 50
C=CC(=O)Nc1ccc(Nc2ncnc(N(CC)c3cccc(C)c3)n2)cc1 | < 50
CC#CC(=O)Nc1cccc(Nc2ncnc(N(C)c3cc(Cl)cc4ccccc34)n2)c1 | < 50
C=CCN(c1ccc2c(cnn2Cc2ccccc2)c1)c1ncnc(Nc2cccc(NC(=O)C#CC)c2)n1 | < 50
C=CC(=O)Nc1cccc(Nc2ncnc(N(C)c3cc(Cl)ccc3C)n2)c1 | < 50
C=CCN(c1cccc(S(=O)(=O)c2ccc([N+](=O)[O-])cc2)c1)c1ncnc(Nc2cccc(NC(=O)C=C)c2)n1 | < 50
C=CC(=O)Nc1cccc(Nc2ncnc(Nc3ccc4c(cnn4Cc4ccccn4)c3)n2)c1 | < 50
C=CC(=O)Nc1cccc(Nc2ncnc(N(C)c3cccc(CC(=O)OC)c3)n2)c1 | < 50
C=CC(=O)Nc1cccc(Nc2ncnc(Nc3ccc(OCc4cccc(F)c4)c(Cl)c3)n2)c1 | < 50
C=CC(=O)Nc1ccc(Nc2ncnc(Nc3cccc(S(=O)(=O)c4ccc([N+](=O)[O-])cc4)c3)n2)cc1 | < 50
C=CCN(c1ccc(OCc2ccccc2)cc1)c1ncnc(Nc2ccc(NC(=O)C=C)cc2)n1 | < 50
C=CCN(c1ccc(F)c(Cl)c1)c1ncnc(Nc2cccc(NC(=O)C#CC)c2)n1 | < 50
CC#CC(=O)Nc1cccc(Nc2ncnc(N(C)C3CC3c3ccccc3)n2)c1 (stereo not given) | < 50
C=CC(=O)Nc1ccc(Nc2ncnc(N(CC)c3cccc(Cl)c3)n2)cc1 | < 50
C=CCN(c1ncnc(Nc2ccc(NC(=O)C=C)cc2)n1)C1CC1c1ccc(Cl)cc1 (stereo not given) | < 50
CC#CC(=O)Nc1cccc(Nc2ncnc(Nc3ccc(OCC)c(OCC)c3)n2)c1 | < 50

Structure (SMILES) | IC50 [µM]
C=CCN(c1cccc(CC(=O)OC)c1)c1ncnc(Nc2ccc(NC(=O)C=C)cc2)n1 | < 50
C=CCN(c1ncnc(Nc2ccc(NC(=O)C=C)cc2)n1)n1c(=O)n(C(=O)C(C)(C)C)c2ccccc21 | < 50
CC#CC(=O)Nc1cccc(Nc2ncnc(Nc3cc(Cl)ccc3C)n2)c1 | < 50
C=CC(=O)Nc1cccc(Nc2ncnc(Nc3cc(OC)c(OC)c(OCCN4CCOCC4)c3)n2)c1 | < 50
C=CC(=O)Nc1cccc(Nc2ncnc(N(C)c3cc(Cl)cc4ccccc34)n2)c1 | < 50
C=CCN(c1ncnc(Nc2cccc(NC(=O)C#CC)c2)n1)c1cc(Cl)ccc1C | < 50
C=CC(=O)Nc1cccc(Nc2ncnc(N(CC)c3ccc(OCCC)c(OCCC)c3)n2)c1 | < 50
C=CC(=O)Nc1cccc(Nc2ncnc(Nc3ccc(C(=O)OC)cc3)n2)c1 | < 50
C=CC(=O)Nc1ccc(Nc2ncnc(N(CC)c3ccc(OCc4ccccc4)cc3)n2)cc1 | < 50
C=CC(=O)Nc1ccc(Nc2ncnc(N(CC)c3cc(Cl)ccc3C)n2)cc1 | < 50
C=CC(=O)Nc1cc(Nc2ncnc(Nc3ccc4c(cnn4Cc4ccccc4)c3)n2)ccc1OCCCN1CCOCC1 | < 50
C=CCN(c1ncnc(Nc2cccc(NC(=O)C=C)c2)n1)n1c(=O)[nH]c2ccccc21 | < 50
C=CC(=O)N(CCCN1CCOCC1)c1cccc(Nc2ncnc(Nc3ccc(OC)c(OC)c3)n2)c1 | < 50
C=CC(=O)Nc1ccc(Nc2ncnc(N(C)n3c(=O)[nH]c4ccccc43)n2)cc1 | < 50
C=CC(=O)Nc1cccc(Nc2ncnc(N(C)c3ccc(OC)c(OC)c3)n2)c1 | < 50
C=CCN(c1ccc(OC)c(OC)c1)c1ncnc(Nc2ccc(NC(=O)C=C)cc2)n1 | < 50
C=CC(=O)Nc1ccc(Nc2ncnc(N(C)c3ccc(OCCOC)c(OC)c3)n2)cc1 | < 50
C=CC(=O)Nc1ccc(Nc2ncnc(NN3CCCc4cc(OC)ccc43)n2)cc1 | < 50
C=CC(=O)Nc1cccc(Nc2ncnc(N(CC)c3ccc4c(cnn4Cc4ccccc4)c3)n2)c1 | < 50
C=CC(=O)Nc1cc(Nc2ncnc(Nc3ccc4c(cnn4Cc4ccccc4)c3)n2)ccc1OC | < 50
C=CC(=O)Nc1cccc(Nc2ncnc(N(CC)c3ccc(OCC)c(OCC)c3)n2)c1 | < 50
CC#CC(=O)Nc1cccc(Nc2ncnc(N(C)c3ccc4c(cnn4Cc4ccccc4)c3)n2)c1 | < 50

Other lines, results leading:

IC50 [µM] | Structure (SMILES)
< 50 | C=CC(=O)Nc1cccc(Nc2ncnc(NN3CCCc4cc(C)ccc43)n2)c1
< 50 | CC#CC(=O)Nc1cccc(Nc2ncnc(Nc3cccc(S(=O)(=O)c4ccc([N+](=O)[O-])cc4)c3)n2)c1
< 50 | C=CC(=O)Nc1ccc(Nc2ncnc(N(CC)c3cccc4ccccc34)n2)cc1
< 50 | C=CC(=O)Nc1cccc(Nc2ncnc(Nc3cccc(C)c3)n2)c1
< 50 | C=CC(=O)Nc1ccc(Nc2ncnc(Nc3cc(OC)c(OC)c(OCCN4CCOCC4)c3)n2)cc1
< 50 | C=CC(=O)Nc1ccc(Nc2ncnc(NN3CCCc4c(Cl)cccc43)n2)cc1
< 50 | C=CC(=O)N(CCCN1CCOCC1)c1cccc(Nc2ncnc(Nc3ccc(C(=O)OC)cc3)n2)c1
< 50 | C=CC(=O)N(CCCN1CCOCC1)c1cccc(Nc2ncnc(Nc3cc(Cl)cc4ccccc34)n2)c1
< 50 | C=CCN(c1ccc(OCCOC)c(OC)c1)c1ncnc(Nc2cccc(NC(=O)C#CC)c2)n1
< 50 | C=CC(=O)Nc1cccc(Nc2ncnc(N(C)C3CC3c3ccc(Cl)cc3)n2)c1 (stereo not given)
< 50 | C=CCN(c1ncnc(Nc2cccc(NC(=O)C=C)c2)n1)c1cccc2ccccc12
< 50 | C=CC(=O)Nc1cccc(Nc2ncnc(N(C)c3ccc(OCC)c(OCC)c3)n2)c1
< 50 | C=CC(=O)Nc1cc(Nc2ncnc(Nc3ccc4c(cnn4Cc4ccccc4)c3)n2)ccc1OCCCC1CCN(C)CC1
< 50 | CC#CC(=O)Nc1cccc(Nc2ncnc(N(C)c3ccc(F)c(Cl)c3)n2)c1
< 50 | C=CC(=O)Nc1ccc(Nc2ncnc(N(C)C3CC3c3ccc(Cl)cc3)n2)cc1 (stereo not given)
< 50 | C=CC(=O)Nc1cc(Nc2ncnc(Nc3ccc4c(ccn4Cc4ccccc4)c3)n2)ccc1OCCCN1CCOCC1
< 50 | C=CC(=O)Nc1ccc(Nc2ncnc(Nc3ccc(OC)cc3)n2)cc1
< 50 | C=CC(=O)Nc1cccc(Nc2ncnc(Nc3ccc(OCc4ccccc4)cc3)n2)c1
< 50 | C=CC(=O)Nc1cccc(Nc2ncnc(Nc3cccc(CC(=O)OC)c3)n2)c1
< 50 | C=CC(=O)Nc1cccc(Nc2ncnc(Nn3c(=O)[nH]c4ccccc43)n2)c1
< 50 | C=CC(=O)Nc1ccc(Nc2ncnc(Nc3cc(Cl)cc4ccccc34)n2)cc1
< 50 | CC#CC(=O)Nc1cccc(Nc2ncnc(N(CC)c3ccc(OCCC)c(OCCC)c3)n2)c1
< 50 | C=CCN(c1ccc2NN(=Cc2c1)Cc3ccccn3)c4ncnc(Nc5cccc(NC(=O)C=C)c5)n4
< 50 | C=CC(=O)Nc1ccc(Nc2ncnc(N(CC)C3CC3c3ccccc3)n2)cc1 (stereo not given)
< 50 | C=CC(=O)Nc1cc(Nc2ncnc(Nc3cccc(Cl)c3)n2)ccc1OCCCN1CCOCC1
< 50 | C=CC(=O)Nc1ccc(Nc2ncnc(N(CC)c3ccc(OCCO)cc3)n2)cc1
< 50 | C=CC(=O)Nc1ccc(Nc2ncnc(N(C)c3ccc(C(=O)OC)cc3)n2)cc1
< 50 | CC#CC(=O)Nc1cccc(Nc2ncnc(N(CC)c3ccc4c(cnn4Cc4ccccc4)c3)n2)c1
< 50 | C=CC(=O)Nc1ccc(Nc2ncnc(N(C)c3cccc(S(=O)(=O)c4ccc([N+](=O)[O-])cc4)c3)n2)cc1

From the Kinase Knowledgebase extract (Sharma et al. 2016)
